Patent US11376254B2, “Positive allosteric modulators of the muscarinic acetylcholine receptor M4” (Vanderbilt University, priority 2017, dated 2022)

How the values were obtained:
Human M4 = target: T1, Human M4 (Homo sapiens, UniProt P08173); experiment: mAChR M4 cell-based functional assay (calcium flux, potentiation of ACh EC20 response); set-up: Emax: dose or concentration left out as unconfirmed
T1 sequence (P08173 1-479): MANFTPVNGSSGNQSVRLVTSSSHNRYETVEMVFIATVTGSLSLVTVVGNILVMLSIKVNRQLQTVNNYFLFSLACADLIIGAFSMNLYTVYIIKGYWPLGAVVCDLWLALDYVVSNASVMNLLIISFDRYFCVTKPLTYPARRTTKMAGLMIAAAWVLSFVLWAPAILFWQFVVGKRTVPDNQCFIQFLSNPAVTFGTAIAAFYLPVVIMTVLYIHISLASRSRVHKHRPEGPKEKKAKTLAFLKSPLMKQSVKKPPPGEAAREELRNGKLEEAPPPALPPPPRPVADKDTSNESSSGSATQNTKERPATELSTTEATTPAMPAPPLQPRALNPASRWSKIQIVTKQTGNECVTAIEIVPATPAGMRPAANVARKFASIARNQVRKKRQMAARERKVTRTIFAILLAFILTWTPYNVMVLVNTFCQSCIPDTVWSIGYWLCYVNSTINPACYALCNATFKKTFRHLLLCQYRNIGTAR

[1] = Alzheimer's disease patients; delusions, suspiciousness, vocal outbursts, hallucinations; cited from earlier work
[2] = without causing catalepsy; cited from earlier work
[3] = human, in vivo; cited from earlier work
[4] = In vitro DMPK: human fraction unbound in plasma; assay type: in vitro ADME; conditions: read-out: Human Fu (plasma)
Description: (§1) Compound 1 was tested in several in vitro assays to investigate both metabolism and pharmacokinetics. These assays were performed according to known methods as generally described in the following references: Conde-Ceide et al. ACS Med. Chem. Lett. 2015, 6, 716-720; Morris et al. J. Med. Chem. 2014, 57, 10192-10197; and Bubser et al. ACS Chem. Neurosci. 2014, 5, 920-942.

[5] = In vitro DMPK: rat predicted hepatic clearance; assay type: in vitro ADME
Description: as §1

[6] = In vitro DMPK: rat fraction unbound in plasma; assay type: in vitro ADME; conditions: read-out: Rat Fu (plasma)
Description: as §1

[7] = In vivo DMPK in rat (plasma clearance, brain:plasma distribution); conditions: read-out: Rat CLp
[8] = In vitro DMPK: human predicted hepatic clearance; assay type: in vitro ADME
Description: as §1

[9] = In vitro DMPK: rat fraction unbound in brain; assay type: in vitro ADME; conditions: read-out: Rat Fu (brain)
Description: as §1

Structure (SMILES)	EC50 (Human M4)	Emax (Human M4)	also measured
Cc1c(C(F)F)nnc2sc3c(N4CC5(COC5)C4)ncnc3c12 [Compound 4, 6-(3-(difluoromethyl)-4-methylpyrimido[4′,5′:4,5]thieno[2,3-c]pyridazin-8-yl)-2-oxa-6-azaspiro[3.3]heptane]	84.1 nM	82.7%	
Cc1c(C(F)F)nnc2sc3c(N4CCOCC4)ncnc3c12 [Compound 6, 4-(3-(difluoromethyl)-4-methylpyrimido[4′,5′:4,5]thieno[2,3-c]pyridazin-8-yl)morpholine]	572 nM	72.2%	
CCCCCCOc1nsnc1C1=CCCN(C)C1 [xanomeline]			effect on psychotic behavioral symptoms [1]: reduce psychotic behavioral symptoms; activity in animal models with profiles similar to known antipsychotic drugs [2]: active in animal models
Nc1c2c(nc3ccccc13)CCCC2 [tacrine]			patients with elevated liver transaminases (hepatotoxicity) [3]: about 30%
Cc1c(C(F)F)nnc2sc3c(N4CC(CO)(CO)C4)ncnc3c12 [Compound 5, (1-(3-(difluoromethyl)-4-methylpyrimido[4′,5′:4,5]thieno[2,3-c]pyridazin-8-yl)azetidine-3,3-diyl)dimethanol]	1060 nM	81.9%	
Cc1c(C(F)F)nnc2sc3c(N4CCCC4)ncnc3c12 [Compound 3, 3-(difluoromethyl)-4-methyl-8-(pyrrolidin-1-yl)pyrimido[4′,5′:4,5]thieno[2,3-c]pyridazine]	238 nM	83.5%	
Cc1c(C(F)F)nnc2sc3c(NCc4ccc(C(C)(C)O)cc4)ncnc3c12 [Compound 1, 2-(4-(((3-(Difluoromethyl)-4-methylpyrimido[4′,5′:4,5]thieno[2,3-c]pyridazin-8-yl)amino)methyl)phenyl)propan-2-ol]		98.7%	fraction unbound [4]: 0.01; Rat Predicted CLhep (mL/min/kg) Method A [5]: 19.1 mL/min/kg; fraction unbound [6]: 0.012; clearance [7]: 2.67 mL/min/kg; Human Predicted CLhep (mL/min/kg) Method A ([8]; Method A (first line)): 6.69 mL/min/kg; Human Predicted CLhep (mL/min/kg) Method A ([8]; second line also printed as Method A): 0.34 mL/min/kg; fraction unbound [9]: 0.006
COc1ccc(CNc2ncnc3c2sc2nnc(C(F)F)c(C)c23)cc1F [Compound 2, 3-(difluoromethyl)-N-(3-fluoro-4-methoxybenzyl)-4-methylpyrimido[4′,5′:4,5]thieno[2,3-c]pyridazin-8-amine]	581 nM	79.8%	

Further lines, with some results ahead:

EC50 (Human M4)	Emax (Human M4)	Structure (SMILES)	also measured
271 nM	95.4%	Cc1c(C(F)F)nnc2sc3c(NC4CCCC4)ncnc3c12 [Compound 7, N-cyclopentyl-3-(difluoromethyl)-4-methylpyrimido[4′,5′:4,5]thieno[2,3-c]pyridazin-8-amine]	
> 10000 nM	68.7%	Cc1ccccc1OC1CCN(c2ncnc3c2sc2nnc(C(F)F)c(C)c23)C1 (stereo not shown) [Compound 11, 3-(difluoromethyl)-4-methyl-8-(3-(o-tolyloxy)pyrrolidin-1-yl)pyrimido[4′,5′:4,5]thieno[2,3-c]pyridazine]	
860 nM	95.5%	Cc1c(C(F)F)nnc2sc3c(NCc4ccc(C(C)(O)C5CC5)cc4)ncnc3c12 (stereo not shown) [Compound 10, 1-cyclopropyl-1-(4-(((3-(difluoromethyl)-4-methylpyrimido[4′,5′:4,5]thieno[2,3-c]pyridazin-8-yl)amino)methyl)phenyl)ethan-1-ol]	
809 nM	95.5%	Cc1c(C(F)F)nnc2sc3c(NCc4ccc(C5(O)CCC5)cc4)ncnc3c12 [Compound 9, 1-(4-(((3-(difluoromethyl)-4-methylpyrimido[4′,5′:4,5]thieno[2,3-c]pyridazin-8-yl)amino)methyl)phenyl)cyclobutan-1-ol]	
528 nM	95.8%	[2H]C([2H])(Nc1ncnc2c1sc1nnc(C(F)F)c(C)c12)c1ccc(C(C)(C)O)cc1 [Compound 8, 2-(4-(((3-(difluoromethyl)-4-methylpyrimido[4′,5′:4,5]thieno[2,3-c]pyridazin-8-yl)amino)methyl-d2)phenyl)propan-2-ol]	
